Data from US20220347175A1, “PYRIDAZINONE DERIVATIVE” (Sumitomo Dainippon Pharma Co., Ltd., priority 2018, published 2022).
Blank lines part the entries; values can stand above or below the compound they belong to.

What was measured:
[1] = molecular target: T1, human Nav1.5 (Homo sapiens, UniProt Q14524); assay: Amplification of Nav1.5-derived voltage-dependent sodium current (Nav1.5 current), cell line stably expressing human Nav1.5, automated patch clamp; type: cell-based
T1 construct: expressed in transfected cells; host or cells: CHO-K1 (T-REx System, ThermoFisher Scientific)
Protocol: Test 2: Evaluation of the Amplification in Nav1.5-Derived Voltage-Dependent Sodium Current (Nav1.5 Current) by Using a Cell Line Stably Expressing Human Nav1.5
A CHO-K1 cell line (Chinese hamster ovary) stably expressing human Nav1.5 (Gene Bank Accession No: P000326.2) was obtained by using purchased T-Rex System (ThermoFisher Scientific, USA), and used for the present test. The effect of test compounds on the amplification of Nav1.5 current was evaluated by using a cell line stably expressing human Nav1.5 and HTS automated patch clamp system, similarly in the method using Nav1.1. In other words, test compounds were added in an extracellular fluid which contained 1% DMSO and 500 nmol/L Tetrodotoxin (TTX), and evaluated as a change of the peak value of Nav1.5 current and the area under the curve (AUC). The induction and the measurement of Nav1.5 current, the pharmacologic effect on Nav1.5 current, and a method for pharmacological evaluation were carried out by the same method as in Nav1.1.

[2] = molecular target: T2, human Nav1.1 (Homo sapiens, UniProt P35498); assay: Amplification of Nav1.1-derived voltage-dependent sodium current (Nav1.1 current), cell line stably expressing human Nav1.1, automated patch clamp; type: cell-based
T2 construct: host or cells: HEK293
Procedure, shortened: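 Automated whole-cell voltage-clamp recordings used HEK293 cells stably expressing human Nav1.1, keeping only cells with >500 pA current, with currents evoked by ramp voltage. Compounds were applied in extracellular fluid with 1% DMSO, and amplification (%) was computed from peak current or AUC after versus before addition.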

[3] = 10 μmol/L compound, change of the area under the curve of Nav1.5 current (Test Result 1), read-out: Nav1.5 current amplification rate (%)
[4] = 10 μmol/L compound, change of the area under the curve of Nav1.1 current (Test Result 1), read-out: Nav1.1 current amplification rate (%)
[5] = compound 3 μmol/L, CHO-K1 stably expressing human Nav1.5
[6] = compound 3 μmol/L, HEK293 stably expressing human Nav1.1
[7] = compound 1 μmol/L, CHO-K1 stably expressing human Nav1.5, read-out: Nav1.5 current amplification rate (%)
[8] = compound 1 μmol/L, HEK293 stably expressing human Nav1.1, read-out: Nav1.1 current amplification rate (%)
[9] = compound 1 μmol/L, CHO-K1 stably expressing human Nav1.5
[10] = compound 1 μmol/L, HEK293 stably expressing human Nav1.1
[11] = 10 μmol/L compound, change of the area under the curve of Nav1.5 current (Test Result 1)
[12] = 10 μmol/L compound, change of the area under the curve of Nav1.1 current (Test Result 1)

T1 sequence (Q14524 1-2015 isoform Q14524-2): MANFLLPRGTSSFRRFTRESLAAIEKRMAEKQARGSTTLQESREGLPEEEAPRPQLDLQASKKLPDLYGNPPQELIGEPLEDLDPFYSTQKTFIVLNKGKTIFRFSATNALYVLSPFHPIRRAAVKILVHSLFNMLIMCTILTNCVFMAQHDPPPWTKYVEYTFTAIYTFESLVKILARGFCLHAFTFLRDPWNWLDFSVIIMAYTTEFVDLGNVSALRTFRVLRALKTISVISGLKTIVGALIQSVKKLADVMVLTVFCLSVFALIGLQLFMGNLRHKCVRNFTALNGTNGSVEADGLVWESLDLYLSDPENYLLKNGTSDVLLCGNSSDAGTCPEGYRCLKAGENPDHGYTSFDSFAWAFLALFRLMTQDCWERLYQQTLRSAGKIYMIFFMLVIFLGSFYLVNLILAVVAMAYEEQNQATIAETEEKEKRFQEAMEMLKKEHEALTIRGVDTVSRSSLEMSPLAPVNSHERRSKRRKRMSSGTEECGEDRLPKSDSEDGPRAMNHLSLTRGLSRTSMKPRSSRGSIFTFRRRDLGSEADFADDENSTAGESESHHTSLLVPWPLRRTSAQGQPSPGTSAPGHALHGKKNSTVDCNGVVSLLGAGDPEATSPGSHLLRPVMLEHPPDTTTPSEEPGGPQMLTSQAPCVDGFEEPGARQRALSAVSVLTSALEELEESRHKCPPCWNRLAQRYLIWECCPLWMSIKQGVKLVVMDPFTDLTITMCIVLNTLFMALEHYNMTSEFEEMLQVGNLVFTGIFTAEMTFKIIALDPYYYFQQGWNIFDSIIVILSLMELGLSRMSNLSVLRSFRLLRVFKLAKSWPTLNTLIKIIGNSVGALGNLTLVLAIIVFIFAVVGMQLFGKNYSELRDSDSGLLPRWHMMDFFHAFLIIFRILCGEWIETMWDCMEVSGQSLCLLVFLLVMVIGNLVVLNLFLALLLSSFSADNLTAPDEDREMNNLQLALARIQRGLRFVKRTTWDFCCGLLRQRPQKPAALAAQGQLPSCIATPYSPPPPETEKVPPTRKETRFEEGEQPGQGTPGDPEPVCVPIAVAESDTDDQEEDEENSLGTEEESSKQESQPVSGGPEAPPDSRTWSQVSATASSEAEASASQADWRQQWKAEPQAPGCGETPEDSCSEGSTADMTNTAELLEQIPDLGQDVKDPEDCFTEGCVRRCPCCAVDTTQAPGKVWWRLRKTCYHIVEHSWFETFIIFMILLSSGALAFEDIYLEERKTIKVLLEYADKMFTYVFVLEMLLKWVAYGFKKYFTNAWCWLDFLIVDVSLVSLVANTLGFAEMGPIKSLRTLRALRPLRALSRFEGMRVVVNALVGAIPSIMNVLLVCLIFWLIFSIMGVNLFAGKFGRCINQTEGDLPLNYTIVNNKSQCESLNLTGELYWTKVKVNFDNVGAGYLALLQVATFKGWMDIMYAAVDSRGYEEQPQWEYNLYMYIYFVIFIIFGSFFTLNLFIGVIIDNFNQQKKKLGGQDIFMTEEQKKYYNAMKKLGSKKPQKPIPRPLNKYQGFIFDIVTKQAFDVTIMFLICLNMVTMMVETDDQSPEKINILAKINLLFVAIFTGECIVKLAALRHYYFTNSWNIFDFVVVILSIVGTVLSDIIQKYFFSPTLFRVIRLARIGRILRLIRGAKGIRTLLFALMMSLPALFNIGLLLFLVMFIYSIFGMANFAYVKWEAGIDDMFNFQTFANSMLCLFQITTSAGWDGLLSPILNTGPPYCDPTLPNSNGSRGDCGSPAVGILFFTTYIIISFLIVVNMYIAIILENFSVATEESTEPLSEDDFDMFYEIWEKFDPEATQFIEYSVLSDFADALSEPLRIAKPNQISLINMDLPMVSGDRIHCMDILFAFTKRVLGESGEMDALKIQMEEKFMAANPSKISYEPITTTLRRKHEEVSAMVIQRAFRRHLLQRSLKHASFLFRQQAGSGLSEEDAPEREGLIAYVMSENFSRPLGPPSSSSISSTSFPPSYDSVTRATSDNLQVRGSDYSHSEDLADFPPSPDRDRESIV

activation at 10 µM [2, 4]: 100%
Compound: O=C(Cn1nc(N2CCC3(CCC3)CC2)ccc1=O)Nc1ccc2c(c1)COC2 [Example 190]
activation at 10 µM [1, 3]: 12%

Nav1.1 current amplification rate (%) [2, 6]: 108%
Compound: CC1CC=C(c2ccc(=O)n(CC(=O)N3CCc4c(CO)cccc43)n2)CC1 (racemic) [Example 266]
Nav1.5 current amplification rate (%) [1, 5]: 128%

activation at 10 µM [2, 4]: 150%
Compound: Cc1c(N2CCC3(CCCC3)C2)nn(CC(=O)Nc2ccn3ccnc3c2)c(=O)c1C [Example 166]
activation at 10 µM [1, 3]: 45%

Nav1.1 current amplification rate (%) [2, 6]: 244%
Compound: COc1ncc(N2CCN(C(=O)Cn3nc(C4=CCC(C)CC4)ccc3=O)CC2)cc1F (stereo not shown) [Example 409]
Nav1.5 current amplification rate (%) [1, 5]: 11%

activation at 1 µM [2, 8]: 58%
Compound: Cc1cc(=O)n(CC(=O)Nc2ccn3ncnc3c2)nc1C1=CCC(C)(C)CC1 [Example 503]
activation at 1 µM [1, 7]: 10%

Nav1.1 current amplification rate (%) [2, 10]: 123%
Compound: CC1CC=C(c2ccc(=O)n(CC(=O)Nc3ccc4nccnc4c3)n2)CC1 (racemic) [Example 354]
Nav1.5 current amplification rate (%) [1, 9]: 27%

activation at 1 µM [2, 8]: 129%
Compound: O=C(Cn1nc(C2=CCCC2)ccc1=O)N1CCc2c(-c3ccnnc3)cccc21 [Example 523]
activation at 1 µM [1, 7]: 5%

activation at 1 µM [2, 8]: 359%
Compound: O=C(Cn1nc(C2=CCCCC2)ccc1=O)N1CCc2c(-c3ccnnc3)cccc21 [Example 517]
activation at 1 µM [1, 7]: 16%

activation at 1 µM [2, 8]: 80%
Compound: C[C@@H]1CC=C(c2ccc(=O)n(CC(=O)Nc3ccc4ncnn4c3)n2)CC1 [Example 539, 2-{3-[(4S)-4-methylcyclohex-1-en-1-yl]-6-oxopyridazin-1(6H)-yl}-N-([1,2,4]triazolo[1,5-a]pyridin-6-yl)acetamide]
activation at 1 µM [1, 7]: 11%

Nav1.1 current amplification rate (%) [2, 6]: 307%
Compound: CC1CC=C(c2ccc(=O)n(CC(=O)N3CCc4c(-c5ccnn5C)cccc43)n2)CC1 (racemic) [Example 251]
Nav1.5 current amplification rate (%) [1, 5]: 15%

activation at 10 µM [2, 4]: 136%
Compound: COc1cc(N2CCC3(CCC3)C2)nn(CC(=O)Nc2ccn3ccnc3c2)c1=O [Example 213]
activation at 10 µM [1, 3]: 5%

activation at 1 µM [2, 8]: 99%
Compound: C[C@@H]1CC=C(c2ccc(=O)n(CC(=O)Nc3ccn4ncnc4c3)n2)CC1 [Example 537, 2-{3-[(4S)-4-methylcyclohex-1-en-1-yl]-6-oxopyridazin-1(6H)-yl}-N-([1,2,4]triazolo[1,5-a]pyridin-7-yl)acetamide]
activation at 1 µM [1, 7]: 29%

Nav1.1 current amplification rate (%) [2, 12]: 40%
Compound: CC1CC=C(c2ccc(=O)n(CC(=O)N3CC4(C3)CN(c3cccnc3)C4)n2)CC1 (stereo not shown) [Example 424]
Nav1.5 current amplification rate (%) [1, 11]: 2%

Nav1.1 current amplification rate (%) [2, 12]: 187%
Compound: COc1cc(=O)n(CC(=O)Nc2ccc3ocnc3c2)nc1C1=CCC(C(F)(F)F)CC1 (stereo not shown) [Example 450]
Nav1.5 current amplification rate (%) [1, 11]: 5%

activation at 10 µM [2, 4]: 58%
Compound: O=C(Cn1nc(C2=CCC(F)(F)CC2)ccc1=O)Nc1ccc(C(F)(F)F)nc1 [Example 103]
activation at 10 µM [1, 3]: 13%

Nav1.1 current amplification rate (%) [2, 12]: 29%
Compound: O=C(Cn1nc(C2=CCC(F)(F)CC2)ccc1=O)N1CCN(c2cncc(F)c2)CC1 [Example 489]
Nav1.5 current amplification rate (%) [1, 11]: 0%

activation at 1 µM [2, 8]: 103%
Compound: O=C(Cn1nc(C2=CCC3(CC2)CC3)ccc1=O)Nc1ccn2ncnc2c1 [Example 512, 2-[6-oxo-3-(spiro[2.5]oct-5-en-6-yl)pyridazin-1(6H)-yl]-N-([1,2,4]triazolo[1,5-a]pyridin-7-yl)acetamide]
activation at 1 µM [1, 7]: 34%

Nav1.1 current amplification rate (%) [2, 10]: 271%
Compound: CC1CC=C(c2ccc(=O)n(CC(=O)N3CCc4c(Cn5cncn5)cccc43)n2)CC1 (racemic) [Example 294]
Nav1.5 current amplification rate (%) [1, 9]: 427%

activation at 10 µM [2, 4]: 212%
Compound: CN(C)c1cc(N2CCC(C)(C)CC2)nn(CC(=O)Nc2ccn3ccnc3c2)c1=O [Example 211]
activation at 10 µM [1, 3]: 8%

activation at 3 µM ([2]; compound 3 μmol/L, HEK293 stably expressing human Nav1.1, read-out: Nav1.1 current amplification rate (%)): 222%
Compound: COc1cc(=O)n(CC(=O)Nc2ccc3oc(C)nc3c2)nc1C1=CCC(C)(C)CC1 [Example 492]
activation at 3 µM ([1]; compound 3 μmol/L, CHO-K1 stably expressing human Nav1.5, read-out: Nav1.5 current amplification rate (%)): 16%

Nav1.1 current amplification rate (%) [2, 12]: 333%
Compound: O=C(Cn1nc(C2=CCC(C(F)(F)F)CC2)ccc1=O)Nc1ccc2ocnc2c1 (stereo not shown) [Example 446]
Nav1.5 current amplification rate (%) [1, 11]: 10%

activation at 10 µM [2, 4]: 189%
Compound: Cc1cc(N2CCC3(CCC3)C2)nn(CC(=O)Nc2ccc3ocnc3c2)c1=O [Example 204]
activation at 10 µM [1, 3]: 8%

Nav1.1 current amplification rate (%) [2, 12]: 218%
Compound: COc1cc(C2=CCC(C)CC2)nn(CC(=O)Nc2ccn3ccnc3c2)c1=O (stereo not shown) [Example 463]
Nav1.5 current amplification rate (%) [1, 11]: 9%
